Measured values taken from ChEMBL document CHEMBL1944613, “Cloning, characterization and sulfonamide inhibition studies of an α-carbonic anhydrase from the living fossil sponge Astrosclera willeyana” (Bioorg Med Chem, 2012).

These molecules were tested against T1, Astrosclerin-3 (Astrosclera willeyana, UniProt A6YCJ1).
T1 sequence (A6YCJ1 whole entry): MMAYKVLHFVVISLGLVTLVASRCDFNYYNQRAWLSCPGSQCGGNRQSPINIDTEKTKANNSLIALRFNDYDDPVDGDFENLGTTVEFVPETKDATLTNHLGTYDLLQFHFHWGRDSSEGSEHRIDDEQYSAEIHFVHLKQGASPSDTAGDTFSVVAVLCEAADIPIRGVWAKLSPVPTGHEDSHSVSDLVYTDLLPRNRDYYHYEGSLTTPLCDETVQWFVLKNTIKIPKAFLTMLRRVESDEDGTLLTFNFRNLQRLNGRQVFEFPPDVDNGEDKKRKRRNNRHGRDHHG
Description: Inhibition of GST-tagged astrosclera willeyana Astrosclerin-3 expressed in Escherichia coli after 15 mins preincubation by stopped flow CO2 hydration assay

Compound | Ki [nM]
NNc1ccccc1S(N)(=O)=O | 8850
NS(=O)(=O)c1ccc(C(=O)O)cc1 [CARZENIDE] | 1210
Cc1ccc(-c2cc(C(F)(F)F)nn2-c2ccc(S(N)(=O)=O)cc2)cc1 [CELECOXIB] | 732
O=C1NS(=O)(=O)c2ccccc21 [SACCHARIN] | 751
NCc1ccc(S(N)(=O)=O)cc1 [MAFENIDE] | 973
Nc1c(F)cc(S(=O)(=O)Nc2nnc(S(N)(=O)=O)s2)cc1Cl | 2.8
Nc1nccc(Nc2ccc(S(N)(=O)=O)cc2)n1 | 54
NS(=O)(=O)c1nnc(NS(=O)(=O)c2ccccc2)s1 [BENZOLAMIDE] | 32
NCCc1ccc(S(N)(=O)=O)cc1 | 715
NNc1ccc(S(N)(=O)=O)cc1 | 6080
Nc1ccc(S(=O)(=O)NCCc2ccc(S(N)(=O)=O)cc2)cc1 | 16
CC1(C)O[C@@H]2[C@@H](CO[C@@]3(COS(N)(=O)=O)OC(C)(C)O[C@@H]23)O1 [TOPIRAMATE] | 38
Nc1c(I)cc(S(N)(=O)=O)cc1I | 879
Nc1c(Br)cc(S(N)(=O)=O)cc1Br | 965
NS(=O)(=O)c1ccc(CCO)cc1 | 1380
NS(=O)(=O)c1ccc(CCNC(=O)c2ccc(S(N)(=O)=O)cc2)cc1 | 34

The remaining molecules from weak to strong by Ki, led by results:

Ki [nM] | Compound
7700 | Nc1ccc(S(N)(=O)=O)cc1 [SULFANILAMIDE]
4260 | NS(=O)(=O)c1ccc(CO)cc1
890 | Nc1ccc(S(N)(=O)=O)cc1F
884 | Nc1ccc(S(N)(=O)=O)cc1Cl
675 | Cc1ccc(S(N)(=O)=O)cc1 [P-TOLUENESULFONAMIDE]
423 | NS(=O)(=O)c1ccc(S(=O)(=O)Nc2cccc3c(Cl)c[nH]c23)cc1
393 | Cn1nc(S(N)(=O)=O)sc1=N
278 | CCN[C@H]1CN(CCCOC)S(=O)(=O)c2sc(S(N)(=O)=O)cc21 [BRINZOLAMIDE]
3.9 | Nc1ccc(S(=O)(=O)Nc2nnc(S(N)(=O)=O)s2)cc1
